Data taken from patent publication US20100222421A1, “Usage of Baicalein in the Preparation of a Pharmaceutical Composition for the Treatment of Traumatic Brain Injury” (National Defense Medical Center, priority 2009, published 2010).

Assays:
TNF-α protein = experiment: ELISA, TNF-α protein after CCI injury; format: in vivo, rat; details: single-dose 30 mg kg^-1 i.p.; ipsilateral cortex, 1 day post-injury; P<0.05
Method: A previously described CCI injury procedure was utilized (Chen et al., 2003). Male Sprague-Dawley rats, which have body weight of 250-300 g, were anaesthetized with sodium pentobarbital (i.p.; 50 mgkg^−1; Rhone Merieux, Harlow, UK) and placed in a stereotaxic frame. A 5-mm craniotomy was performed over the left parietal cortex, centered on the coronal suture and 3 mm lateral to the sagittal suture. Considerable care was taken to avoid injury to the underlying dura. Injury was made using a pneumatic piston with a rounded metal tip (2.5 mm diameter) that was angled 22.5° C. to the vertical so that the tip was perpendicular with the brain surface at the centre of the craniotomy. A velocity of 4 ms^−1 and a deformation depth 2 mm below the dura were used. […] Body temperature was monitored throughout the surgery by a rectal probe; temperature was maintained at 37.0±0.5° C. using a heated pad. […]
Single-dose baicalein (30 mg kg^−1) or a corresponding volume of vehicle was administered i.p. immediately following injury. […] Testing after injury was as follows: (1) real-time quantitative RT-PCR analysis for TNF-α, IL-1β and IL-6 mRNA expression at 6 h post-injury (n=7 for each group); (2) FluoroJade B (FJB) staining, TNF-α, IL-1β and IL-6 immunohistochemistry, as well as ELISA at 24 h post-injury to assess degenerative neurons and to determine cytokine expression (n=7 for each group). […]

IL-6-positive cells = experiment: Immunohistochemistry, IL-6-positive cells after CCI injury; format: in vivo, rat; details: single-dose 30 mg kg^-1 i.p.; cortical tissue adjacent to contusion core, 1 day post-injury
Method: A previously described CCI injury procedure was utilized (Chen et al., 2003). Male Sprague-Dawley rats, which have body weight of 250-300 g, were anaesthetized with sodium pentobarbital (i.p.; 50 mgkg^−1; Rhone Merieux, Harlow, UK) and placed in a stereotaxic frame. A 5-mm craniotomy was performed over the left parietal cortex, centered on the coronal suture and 3 mm lateral to the sagittal suture. Considerable care was taken to avoid injury to the underlying dura. Injury was made using a pneumatic piston with a rounded metal tip (2.5 mm diameter) that was angled 22.5° C. to the vertical so that the tip was perpendicular with the brain surface at the centre of the craniotomy. A velocity of 4 ms^−1 and a deformation depth 2 mm below the dura were used. The bone flap was immediately replaced and sealed, and the scalp was closed with sutures. Body temperature was monitored throughout the surgery by a rectal probe; temperature was maintained at 37.0±0.5° C. using a heated pad. […] Testing after injury was as follows: (1) real-time quantitative RT-PCR analysis for TNF-α, IL-1β and IL-6 mRNA expression at 6 h post-injury (n=7 for each group); (2) FluoroJade B (FJB) staining, TNF-α, IL-1β and IL-6 immunohistochemistry, as well as ELISA at 24 h post-injury to assess degenerative neurons and to determine cytokine expression (n=7 for each group). […]

## O=c1cc(-c2ccccc2)oc2cc(O)c(O)c(O)c12 [baicalein]
TNF-α protein
  TNF-α protein concentration, % of concentration in vehicle-treated rats: 54%
IL-6-positive cells
  reduction in IL-6-positive cells relative to vehicle: 33%
